Experiments:
[1] = biological target: T1, proteasome in Molt-4 cells (human leukemia) (Homo sapiens, UniProt P20618+P28074); format: cell-based; details: assay of Example E, inhibition of MOLT4; read-out: MOLT4 (EC50)
T1 sequence (P28074 60-263): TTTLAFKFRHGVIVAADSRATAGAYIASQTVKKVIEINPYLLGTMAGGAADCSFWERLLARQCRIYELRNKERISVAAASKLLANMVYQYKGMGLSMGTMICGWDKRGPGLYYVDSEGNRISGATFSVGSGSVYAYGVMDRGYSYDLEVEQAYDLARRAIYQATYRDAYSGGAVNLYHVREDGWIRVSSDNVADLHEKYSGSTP
T1 sequence (P20618 29-241): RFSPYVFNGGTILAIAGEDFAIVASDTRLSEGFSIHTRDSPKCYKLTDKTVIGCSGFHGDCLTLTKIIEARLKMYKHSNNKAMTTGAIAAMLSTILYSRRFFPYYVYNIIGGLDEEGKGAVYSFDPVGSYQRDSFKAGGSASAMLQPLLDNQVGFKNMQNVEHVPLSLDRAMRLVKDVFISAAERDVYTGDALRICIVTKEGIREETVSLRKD
Outline: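 Intact Molt-4 cells (6×10^6 cells/mL) in HEPES-buffered saline were preincubated with inhibitor 15 min at 37 °C, then given cell-permeable MeOSuc-FLF-AFC at 25 μM final.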

[2] = biological target: T2, 20S Human Erythrocyte Proteasome (HEP) (Homo sapiens, UniProt P20618+P28074); assay: Chymotrypsin-like activity of 20S Human Erythrocyte Proteasome (HEP), IC50 determination; format: biochemical; details: assay of Example C, inhibition of HEP
T2 construct: 20S Human Erythrocyte Proteasome (HEP), purchased from Immatics Biotechnologies Inc; purchased Immatics Biotechnologies Inc., Tübingen, Germany; host or cells: human erythrocytes (natural source)
Outline: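 20S proteasome at 0.2 μg/mL (about 0.6 nM catalytic sites) in 20 mM Tris with 0.04% SDS, preincubated 15 min at 37° C with inhibitor before Suc-LLVY-AMC (100 μM final). AMC fluorescence read in the linear range; triplicates, IC50 from concentration series.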

EC50 [1] | IC50 [2] | SMILES
2000 to 10000 nM | < 10 nM | CCCCC(C(=O)N[C@@H](CCCNC(=N)N[N+](=O)[O-])C(=O)N[C@@H](CC(C)C)B(O)O)C1CCCC1 (mixture of isomers) [E.2.59, Boronic acid, [(1R)-1-[[(2S)-5-[[imino(nitroamino)methyl]amino]-2-[[(RS)-2-cyclopentylhexanoyl]amino]-1-oxopentyl]amino]-3-methylbutyl]]
< 200 nM | < 10 nM | C/C(=C\c1ccccc1)C(=O)N[C@@H](CCCNC(=N)N[N+](=O)[O-])C(=O)N[C@@H](CC(C)C)B1O[C@@H]2C[C@@H]3C[C@@H](C3(C)C)[C@]2(C)O1 [D.3.26, (E)-2-Methyl-3-phenyl-acrylamide,N-[(1S)-1-[[[(1R)-1-[(3aS,4S,6S,7aR)-hexahydro-3a,5,5-trimethyl-4,6-methano-1,3,2-benzodioxaborol-2-yl]-3-methylbutyl]amino]carbonyl]-4-[[imino(nitroamino)methyl]amino]butyl]]
< 200 nM | < 10 nM | CCCCc1ccc(C(=O)N[C@@H](CNC(=O)NCCC)C(=O)N[C@@H](CC(C)C)B(O)O)cc1 [E.5.2, Boronic acid, [(1R)-1-[[(2S)-3-(propylureido)-2-[(4-butyl)-benzoylamino]-1-oxopropyl]amino]-3-methylbutyl]]
< 200 nM | < 10 nM | CCCCCCCCCCC(=O)N[C@@H](CCCNC(=N)N[N+](=O)[O-])C(=O)N[C@@H](CC(C)C)B(O)O [D.7.41, Boronic acid, [(1R)-1-[[(2S)-5-[[imino(nitroamino)methyl]amino]-2-[(undecanoyl)amino]-1-oxopentyl]amino]-3-methylbutyl]]
< 200 nM | < 10 nM | CC(C)C[C@H](NC(=O)[C@H](CCCNC(=N)N[N+](=O)[O-])NC(=O)CCc1cccs1)B1O[C@@H]2C[C@@H]3C[C@@H](C3(C)C)[C@]2(C)O1 [D.3.39, 3-Thiophen-2-yl-propanamide,N-[(1S)-1-[[[(1R)-1-[(3aS,4S,6S,7aR)-hexahydro-3a,5,5-trimethyl-4,6-methano-1,3,2-benzodioxaborol-2-yl]-3-methylbutyl]amino]carbonyl]-4-[[imino(nitroamino)methyl]amino]butyl]]
200 to 2000 nM | < 100 nM | COCCOCCOCC(=O)N[C@H](C(=O)N[C@@H](CC(C)C)B1O[C@@H]2C[C@@H]3C[C@@H](C3(C)C)[C@]2(C)O1)[C@@H](C)O [D.3.175, 2-[2-(2-Methoxyethoxy)ethoxy]acetamide,N-[(1S,2R)-1-[[[(1R)-1-[(3aS,4S,6S,7aR)-hexahydro-3a,5,5-trimethyl-4,6-methano-1,3,2-benzodioxaborol-2-yl]-3-methylbutyl]amino]carbonyl]-2-hydroxypropyl]]
< 200 nM | < 10 nM | CC(C)C[C@H](NC(=O)[C@H](CCCNC(=N)N[N+](=O)[O-])NC(=O)/C=C/c1ccccc1Br)B1O[C@@H]2C[C@@H]3C[C@@H](C3(C)C)[C@]2(C)O1 [D.3.34]
2000 to 10000 nM | < 10 nM | CCS(=O)(=O)NCCCCCCCC(=O)N[C@@H](CCCNC(=N)N[N+](=O)[O-])C(=O)N[C@@H](CC(C)C)B1O[C@@H]2C[C@@H]3C[C@@H](C3(C)C)[C@]2(C)O1 [D.1.13]
200 to 2000 nM | < 10 nM | CC(C)C[C@H](NC(=O)[C@H](CCCNC(=N)N[N+](=O)[O-])NC(=O)CCSc1ccc2ccccc2c1)B(O)O [E.2.48, Boronic acid, [(1R)-1-[[(2S)-5-[[imino(nitroamino)methyl]amino]-2-[[3-(naphthalen-2-ylsulfanyl)-propanoyl]amino]-1-oxopentyl]amino]-3-methylbutyl]]
< 200 nM | < 10 nM | CC(C)C[C@H](NC(=O)[C@H](CCCNC(=N)N[N+](=O)[O-])NC(=O)CCCCc1ccc(F)cc1)B1O[C@@H]2C[C@@H]3C[C@@H](C3(C)C)[C@]2(C)O1 [D.3.124, 5-(4-Fluorophenyl)-pentanamide,N-[(1S)-1-[[[(1R)-1-[(3aS,4S,6S,7aR)-hexahydro-3a,5,5-trimethyl-4,6-methano-1,3,2-benzodioxaborol-2-yl]-3-methylbutyl]amino]carbonyl]-4-[[imino(nitroamino)methyl]amino]butyl]]
2000 to 10000 nM | < 10 nM | CCc1ccc(OCC(=O)N[C@@H](CCCNC(=N)N[N+](=O)[O-])C(=O)N[C@@H](CC(C)C)B(O)O)cc1 [E.2.55, Boronic acid, [(1R)-1-[[(2S)-5-[[imino(nitroamino)methyl]amino]-2-[[2-(4-ethylphenoxy)acetyl]amino]-1-oxopentyl]amino]-3-methylbutyl]]
< 200 nM | < 10 nM | CC(C)C[C@H](NC(=O)[C@H](CCCNC(=N)N[N+](=O)[O-])NC(=O)/C=C/c1ccc(Br)cc1)B1O[C@@H]2C[C@@H]3C[C@@H](C3(C)C)[C@]2(C)O1 [D.3.92, (E)-3-(4-Bromophenyl)acrylamide,N-[(1S)-1-[[[(1R)-1-[(3aS,4S,6S,7aR)-hexahydro-3a,5,5-trimethyl-4,6-methano-1,3,2-benzodioxaborol-2-yl]-3-methylbutyl]amino]carbonyl]-4-[[imino(nitroamino)methyl]amino]butyl]]
< 200 nM | < 10 nM | CCCCCC(=O)NC[C@H](NC(=O)c1ccc(CCCC)cc1)C(=O)N[C@@H](CC(C)C)B1O[C@@H]2C[C@@H]3C[C@@H](C3(C)C)[C@]2(C)O1 [D.24.10, 4-butylbenzamide, N-[(1S)-1-[[[(1R)-1-[(3aS,4S,6S,7aR)-hexahydro-3a,5,5-trimethyl-4,6-methano-1,3,2-benzodioxaborol-2-yl]-3-methylbutyl]amino]carbonyl]-2-(hexanonylamino)ethyl]-]
2000 to 10000 nM | < 10 nM | CC(C)=CCC[C@@H](C)CC(=O)N[C@@H](CCCNC(=N)N[N+](=O)[O-])C(=O)N[C@@H](CC(C)C)B(O)O [D.7.25, Boronic acid, [(1R)-1-[[(2S)-5-[[imino(nitroamino)methyl]amino]-2-[((3R)-3,7-dimethyloct-6-enoyl)amino]-1-oxopentyl]amino]-3-methylbutyl]]
> 10000 nM | < 100 nM | CC(=O)NCC(=O)N[C@@H](CCCNC(=N)N[N+](=O)[O-])C(=O)N[C@@H](CC(C)C)B1O[C@@H]2C[C@@H]3C[C@@H](C3(C)C)[C@]2(C)O1 [D.1.11, 2-Acetylamino-acetamide,N-[(1S)-1-[[[(1R)-1-[(3aS,4S,6S,7aR)-hexahydro-3a,5,5-trimethyl-4,6-methano-1,3,2-benzodioxaborol-2-yl]-3-methylbutyl]amino]carbonyl]-4-[[imino(nitroamino)methyl]amino]butyl]]
< 200 nM | < 10 nM | CC(C)C[C@H](NC(=O)[C@H](CCCNC(=N)N[N+](=O)[O-])NC(=O)/C=C/c1ccc2ccccc2c1)B1O[C@@H]2C[C@@H]3C[C@@H](C3(C)C)[C@]2(C)O1 [D.3.97, (E)-3-(Naphthalen-2-yl)acrylamide,N-[(1S)-1-[[[(1R)-1-[(3aS,4S,6S,7aR)-hexahydro-3a,5,5-trimethyl-4,6-methano-1,3,2-benzodioxaborol-2-yl]-3-methylbutyl]amino]carbonyl]-4-[[imino(nitroamino)methyl]amino]butyl]]
< 200 nM | < 10 nM | CCCCCCCC(=O)N[C@@H](CCCNC(=N)N[N+](=O)[O-])C(=O)N[C@@H](CC(C)C)B1O[C@@H]2C[C@@H]3C[C@@H](C3(C)C)[C@]2(C)O1 [D.3.8, Octanamide,N-[(1S)-1-[[[(1R)-1-[(3aS,4S,6S,7aR)-hexahydro-3a,5,5-trimethyl-4,6-methano-1,3,2-benzodioxaborol-2-yl]-3-methylbutyl]amino]carbonyl]-4-[[imino(nitroamino)methyl]amino]butyl]]
< 200 nM | < 100 nM | CC(C)C[C@H](NC(=O)[C@@H](NC(=O)c1cnccn1)[C@@H](C)O)B1O[C@@H]2C[C@@H]3C[C@@H](C3(C)C)[C@]2(C)O1 [D.8.4, 2-Pyrazinecarbossamide, N-[(1S,2R)-1-[[[(1R)-1-[(3aS,4S, 6S,7aR)-hexahydro-3a,5,5-trimethyl-4,6-methano-1,3,2-benzodioxaborol-2-yl]-3-melthylbutyl]amino]carbonyl]-2-hydroxypropyl]]
< 200 nM | < 100 nM | CC(C)C[C@H](NC(=O)[C@@H](NS(=O)(=O)c1ccc2ccccc2c1)[C@@H](C)O)B1O[C@@H]2C[C@@H]3C[C@@H](C3(C)C)[C@]2(C)O1 [D.4.9, Naphthalene-2-sulfonamide, N-[(1S,2R)-1-[[[(1R)-1-[(3aS,4S,6S,7aR)-hexahydro-3a,5,5-trimethyl-4,6-methano-1,3,2-benzodioxaborol-2-yl]-3-methylbutyl]amino]carbonyl]-2-hydroxypropyl]]

SMILES | EC50 [1] | IC50 [2]
CCCCOCC(=O)N[C@@H](CCCNC(=N)N[N+](=O)[O-])C(=O)N[C@@H](CC(C)C)B1O[C@@H]2C[C@@H]3C[C@@H](C3(C)C)[C@]2(C)O1 [D.2.3, 2-Butoxyacetamide,N-[(1S)-1-[[[(1R)-1-[(3aS,4S,6S,7aR)-hexahydro-3a,5,5-trimethyl-4,6-methano-1,3,2-benzodioxaborol-2-yl]-3-methylbutyl]amino]carbonyl]-4-[[imino(nitroamino)methyl]amino]butyl]] | < 200 nM | < 10 nM

— US8546608B2, “Proteasome inhibitors and methods of using the same” (Cephalon, Inc., priority 2003, dated 2013)
